Results as given in patent US6492370B1, “Urea derivatives and pharmaceutical compositions thereof” (Santen Pharmaceutical Co., Ltd., priority 1998, dated 2002).

tested on: TNF-α production from human monocytic line THP-1 by LPS stimulation; experiment: In vitro test: TNF-α production from human monocytic line THP-1 by LPS stimulation; assay type: cell-based; settings: 2 h; test compound 10^−5 M, THP-1 cells 10^6/ml, LPS 2 μg/ml, 37° C. for two hours, human TNF-α specific ELISA; read-out: Inhibition rate (%) (TNF-α inhibition rates)
Method: (§1) Inhibitory effects on TNF-α production induced by lipopolysaccharide (LPS) stimulation were studied by in vitro or in vivo tests according to the method of McGeehan et al. (Nature, 370, […](1994)).
Analyses were carried out by measuring TNF-α production from human monocytic line THP-1 by LPS stimulation.
As a medium, an RPMI1640medium containing a fetal bovine serum(10%), L-glutamine (2 mM), 2-mercaptoethanol (50 μM), penicillin (50 units/ml) and streptomycin (50 μg/ml) was used.
With respect to cells, human monocytic line THP-1 cells cultured in the above-mentioned medium were centrifuged at 100×g for five minutes to remove supernatant and then re-suspended in the medium. With respect to LPS, LPS from S. Typhimurium was dissolved in purified water and then diluted with the medium. Test compounds were dissolved in dimethyl sulfoxide (DMSO) and then diluted with the medium.
The cells (10^6/ml), LPS (2 μg/ml) and the test compound (10^−5 M) prepared as mentioned above were mixed, and this mixture was incubated at 37° C. for two hours and then centrifuged at 1000×g […] in cultured supernatant were measured with a human TNF-α specific ELISA kit. TNF-α production was not observed in the cultured supernatant in the absence of LPS (control).
(§2) TNF-α production inhibition rates of the test compounds were determined by the following equation.
(§3) Inhibition rate (%)=[(A-B)/A]×100
A: TNF-α level in supernatant of culture medium in the absence of test compound
B: TNF-α level in supernatant of culture medium in the presence of test compound

Row | SMILES | inhibition at 10 µM [%]
1 | CC(=O)SCCN(CCc1ccccc1)C(=O)N[C@@H](Cc1ccc([N+](=O)[O-])cc1)C(=O)NCCN(C)C1CCCCC1 [Compound No. 27-46, (2S)-2-[3-[2-(Acetylthio)ethyl]-3-phenethylureido]-N-[2-[(N-methyl)cyclohexylamino]ethyl]-3-(4-nitrophenyl)propionamide] | 100
2 | CC(=O)SCCN(CCc1ccccc1)C(=O)N[C@@H](Cc1ccc([N+](=O)[O-])cc1)C(=O)NCCN(C)C [Compound No. 27-41, (2S)-2-[3-[2-(Acetylthio)ethyl]-3-phenethylureido]-N-[2-(dimethylamino)ethyl]-3-(4-nitrophenyl)propionamide] | 93.8
3 | CC(=O)SCCN(CCc1ccccc1)C(=O)N[C@@H](Cc1ccc([N+](=O)[O-])cc1)C(=O)NCCN(C(C)C)C(C)C [Compound No. 27-10] | 100
4 | CC(=O)SCCN(CCc1ccccc1)C(=O)N[C@@H](Cc1ccc(Cl)cc1)C(=O)NCCN(C)C [Compound No. 27-17, (2S)-2-[3-[2-(Acetylthio)ethyl]-3-phenethylureido]-3-(4-chlorophenyl)-N-[2-(dimethylamino)ethyl]propionamide] | 93.5
5 | CC(=O)SCCN(CCc1ccccc1)C(=O)N[C@@H](Cc1ccc(-c2ccccc2)c([N+](=O)[O-])c1)C(=O)NCCN(C)C [Compound No. 27-19, (2S)-2-[3-[2-(Acetylthio)ethyl]-3-phenethylureido]-N-[2-(dimethylamino)ethyl]-3-(2-nitro-4-biphenylyl)propionamide] | 93.5
6 | CC(=O)SCCN(CCc1ccccc1)C(=O)N[C@@H](Cc1ccc2ccccc2c1)C(=O)NCCN(C)C [Compound No. 27-58, (2S)-2-[3-[2-(Acetylthio)ethyl]-3-phenethylureido]-N-[2-(dimethylamino)ethyl]-3-(2-naphthyl)propionamide] | 100
7 | COc1ccc(C[C@H](NC(=O)N(CCSC(C)=O)CCc2ccccc2)C(=O)NCCN(C)C)cc1 [Compound No. 27-56, (2S)-2-[3-[2-(Acetylthio)ethyl]-3-phenethylureido]-N-[2-(dimethylamino)ethyl]-3-(4-methoxyphenyl)propionamide] | 96.9
8 | CCN(CC)CCNC(=O)[C@H](Cc1ccc([N+](=O)[O-])cc1)NC(=O)N(CCSC(C)=O)CCc1ccccc1 [Compound No. 27-47, (2S)-2-[3-[2-(Acetylthio)ethyl]-3-phenethylureido]-N-[2-(diethylamino)ethyl]-3-(4-nitrophenyl)propionamide] | 100
9 | CN(C)CCNC(=O)[C@H](Cc1ccc([N+](=O)[O-])cc1)NC(=O)N(CCSC(=O)c1ccccc1)CCc1ccccc1 [Compound No. 27-42, (2S)-2-[3-[2-(Benzoylthio)ethyl]-3-phenethylureido]-N-[2-(dimethylamino)ethyl]-3-(4-nitrophenyl)propionamide] | 100
10 | CC(=O)SCCN(CCc1ccccc1)C(=O)N[C@@H](Cc1ccc(-c2ccccc2)cc1)C(=O)NCCN(C)C [Compound No. 27-59, (2S)-2-[3-[2-(Acetylthio)ethyl]-3-phenethylureido]-3-(4-biphenylyl)-N-[2-(dimethylamino)ethyl]propionamide] | 100

tested on: TNF-α production induced by lipopolysaccharide (LPS) stimulation; experiment: In vivo test: TNF-α levels in plasma of LPS-administered rats; parameters: species or system rat; settings: Rattus norvegicus, 2 h; female rats, oral administration of 50 mg/kg immediately after subcutaneous LPS, plasma two hours after LPS; read-out: Inhibition rate (%) (TNF-α production inhibition rates)
Method: as §1
Female rats (five per group), body weight of about 200 g,about eight weeks old, were used as test animals. With respect to LPS to be used, LPS from Salmonella was dissolved in physiological saline (1 mg/ml). Test compounds were dissolved or uniformly suspended in a 1% aqueous methylcellulose solution.
The above-mentioned LPS solution (0.5 ml/kg) was subcutaneously administered to the rat. Immediately after the LPS administration, the test compound preparation liquid (5 ml/kg, containing 50 mg/kg test compound) was orally administered. Two hours after the LPS administration, blood was collected from abdominal aorta and was centrifuged at 4° C. and 3000 rpm for ten minutes. TNF-α levels in the obtained plasma were measured with a rat TNF-α-specific ELISA kit. TNF-α was not observed in the plasma with respect to an LPS-nonadministered group (control).
as §2, §3
A: TNF-α level in plasma of test compound-nonadministered group
B: TNF-α level in plasma of test compound-administered group

Row | SMILES | inhibition in vivo at 50 mg/kg [%]
11 | CC(=O)SCCN(CCC1CCCCC1)C(=O)N[C@@H](C)C(=O)N1CCN(C)CC1 [Compound No. 13-1, 1-[(2S)-2-[3-[2-(Acetylthio)ethyl]-3-(2-cyclohexylethyl)ureido]propionyl]-4-methylpiperazine] | 84.6
12 | CSCCC(NC(=O)N(CCSC(C)=O)CCc1ccccc1)C(=O)N1CCN(C)CC1 (racemic) [Compound No. 27-4, 1-[(2RS)-2-[3-[2-(Acetylthio)ethyl]-3-phenethylureido]-4-(methylthio)butyryl]-4-methylpiperazine] | 60.9
13 | CC(=O)SCCN(CCc1ccccc1)C(=O)N[C@H](C)C(=O)N1CCN(C)CC1 [Compound No. 13-3, 1-[(2R)-2-[3-[2-(Acetylthio)ethyl]-3-phenethylureido]propionyl]-4-methylpiperazine] | 66.8
14 | CC(=O)SCCN(CCC1=CCCCC1)C(=O)N[C@@H](C)C(=O)N1CCN(C)CC1 [Compound No. 27-84, 1-[(2S)-2-[3-[2-(Acetylthio)ethyl]-3-[2-(1-cyclohexenyl)ethyl]ureido]propionyl]-4-methylpiperazine] | 56.7
15 | CC(=O)SCCN(CCCc1ccccc1)C(=O)N[C@@H](C)C(=O)N1CCN(C)CC1 [Compound No. 13-12, 1-[(2S)-2-[3-[2-(Acetylthio)ethyl]-3-(3-phenylpropyl)ureido]propionyl]-4-methylpiperazine] | 62.3
16 | CC(=O)SCCN(CCC1CCCCC1)C(=O)N[C@@H](C)C(=O)N1CCCCC1 [Compound No. 13-49, 1-[(2S)-2-[3-[2-(Acetylthio)ethyl]-3-(2-cyclohexylethyl)ureido]propionyl]piperidine] | 90
17 | CC(=O)SCCN(C(=O)N[C@@H](C)C(=O)N1CCN(C)CC1)c1ccccc1 [Compound No. 13-17, 1-[(2S)-2-[3-[2-(Acetylthio)ethyl]-3-phenylureido]propionyl]-4-methylpiperazine] | 50.3
18 | CC(=O)SCCN(CCC1CCCCC1)C(=O)N[C@@H](C)C(=O)N1CCOCC1 [Compound No. 13-50, 4-[(2S)-2-[3-[2-(Acetylthio)ethyl]-3-(2-cyclohexylethyl)ureido]propionyl]morpholine] | 93.5
19 | CC(=O)SCCN(CCC1CCCC1)C(=O)N[C@@H](C)C(=O)N1CCN(C)CC1 [Compound No. 13-57, 1-[(2S)-2-[3-[2-(Acetylthio)ethyl]-3-(2-cyclopentylethyl)ureido]propionyl]-4-methylpiperazine] | 90.1
20 | CC(=O)SCCN(CCc1ccccc1)C(=O)NCC(=O)N1CCN(C)CC1 [Compound No. 13-20, 1-[2-[3-[2-(Acetylthio)ethyl]-3-phenethylureido]acetyl]-4-methylpiperazine] | 66.6

same assay, conditions: female rats, oral administration of 50 mg/kg immediately after subcutaneous LPS, plasma two hours after LPS

Row | SMILES | Inhibition rate (%) (TNF-α production inhibition rates)
21 | CC(=O)SCCN(CCOc1ccccc1)C(=O)N[C@@H](C)C(=O)N1CCN(C)CC1 [Compound No. 13-16] | 54.1

tested on: not given; experiment: not given; settings: not given

Row | melting point | SMILES
22 | 90 °C | CC(=O)SCCN(CCc1ccccc1)C(=O)N[C@@H](Cc1ccc([N+](=O)[O-])cc1)C(=O)NCCN(C)C1CCCCC1 [Compound No. 27-46, (2S)-2-[3-[2-(Acetylthio)ethyl]-3-phenethylureido]-N-[2-[(N-methyl)cyclohexylamino]ethyl]-3-(4-nitrophenyl)propionamide]
23 | 106 to 112.5 °C | CC(=O)SCCN(CCc1ccccc1)C(=O)N[C@@H](Cc1ccc([N+](=O)[O-])cc1)C(=O)NCCc1ccccn1 [Compound No. 27-50, (2S)-2-[3-[2-(Acetylthio)ethyl]-3-phenethylureido]-3-(4-nitrophenyl)-N-[2-(2-pyridyl)ethyl]propionamide]
24 | 110 °C | CC(=O)SCCN(CCc1ccccc1)C(=O)N[C@@H](Cc1ccc([N+](=O)[O-])cc1)C(=O)NCCN1C(=O)c2ccccc2C1=O [Compound No. 27-45, (2S)-2-[3-[2-(Acetylthio)ethyl]-3-phenethylureido]-3-(4-nitrophenyl)-N-[2-(phthalimido)ethyl]propionamide]
25 | 90 °C | CC(=O)SCCN(CCc1ccccc1)C(=O)N[C@@H](Cc1ccc(F)cc1)C(=O)NCCN(C)C [Compound No. 27-54, (2S)-2-[3-[2-(Acetylthio)ethyl]-3-phenethylureido]-N-[2-(dimethylamino)ethyl]-3-(4-fluorophenyl)propionamide]
26 | 90 °C | CC(=O)SCCN(CCc1ccccc1)C(=O)N[C@@H](Cc1ccc(-c2ccccc2)c([N+](=O)[O-])c1)C(=O)NCCN(C)C [Compound No. 27-19, (2S)-2-[3-[2-(Acetylthio)ethyl]-3-phenethylureido]-N-[2-(dimethylamino)ethyl]-3-(2-nitro-4-biphenylyl)propionamide]
27 | 95 °C (dec.) | CC(=O)Nc1ccc(C[C@H](NC(=O)N(CCSC(C)=O)CCc2ccccc2)C(=O)NCCN(C)C)cc1 [Compound No. 27-82, (2S)-3-[4-(Acetylamino)phenyl]-2-[3-[2-(acetylthio)ethyl]-3-phenethylureido]-N-[2-(dimethylamino)ethyl]propionamide]
28 | 230 °C (dec.) | CC(=O)SCCN(CCc1ccccc1)C(=O)N[C@@H](Cc1ccccc1)C(=O)N1CCN(CC(=O)O)CC1 [Compound No. 13-32, 1-[(2S)-2-[3-[2-(Acetylthio)ethyl]-3-phenethylureido]-3-phenylpropionyl]-4-(carboxymethyl)piperazine]
29 | 65 °C | CCN(CC)CCNC(=O)[C@H](Cc1ccc([N+](=O)[O-])cc1)NC(=O)N(CCSC(C)=O)CCc1ccccc1 [Compound No. 27-47, (2S)-2-[3-[2-(Acetylthio)ethyl]-3-phenethylureido]-N-[2-(diethylamino)ethyl]-3-(4-nitrophenyl)propionamide]
